Results reported in ChEMBL document CHEMBL1240402 (2010).
Active and inactive are the calls of the source. The rule behind the calls is not given here.

Columns and labels:
Type in all cases: functional
[1] = tested on: Clostridium perfringens; experiment: Antimicrobial activity against Clostridium perfringens LFM1 assessed as susceptibility breakpoint by DIN-standardized microdilution method
[2] = tested on: Clostridium perfringens; experiment: Antimicrobial activity against Clostridium perfringens LFM1 assessed as susceptibility breakpoint by DANMAP method
[3] = tested on: Escherichia coli; experiment: Antimicrobial activity against flo gene positive Escherichia coli
[4] = tested on: Clostridium perfringens; experiment: Antimicrobial activity against Clostridium perfringens LFM1 assessed as susceptibility breakpoint by EUCAST method

SMILES | Activity [1] | Activity [2] | MIC [3] [µg/mL] | Activity [4] | Activity ([4]; record 2)
CCC[C@@H]1C[C@@H](C(=O)N[C@@H]([C@H]2O[C@H](SC)[C@H](O)[C@@H](O)[C@H]2O)[C@H](C)Cl)N(C)C1 | inactive |  |  |  | 
CC[C@H]1OC(=O)[C@H](C)[C@@H](O[C@H]2C[C@@](C)(OC)[C@@H](O)[C@H](C)O2)[C@H](C)[C@@H](O[C@@H]2O[C@H](C)C[C@H](N(C)C)[C@H]2O)[C@](C)(O)C[C@@H](C)C(=O)[C@H](C)[C@@H](O)[C@]1(C)O | inactive |  |  |  | 
O=C(N[C@H](CO)[C@H](O)c1ccc([N+](=O)[O-])cc1)C(Cl)Cl |  | inactive |  |  | 
CS(=O)(=O)c1ccc([C@@H](O)[C@@H](CF)NC(=O)C(Cl)Cl)cc1 [FLORFENICOL] |  | inactive | > 32 |  | 
CC(=O)NC[C@H]1CN(c2ccc(N3CCOCC3)c(F)c2)C(=O)O1 [LINEZOLID] | <=2 mg/L | <=2 mg/L | > 64 | inactive | <=2 mg/L
